Data published in ChEMBL document CHEMBL6178021, “Optimization of Tambjamines Active against Multiple Stages of Malaria Parasites” (J Med Chem, 2025).

How the values were obtained:
[1] = test system: Plasmodium berghei; assay: Anti-malarial activity against Luciferase-expressing Plasmodium berghei sporozoites inoculated in po dosed Albino C57BL/6 mouse malaria model assessed as elimination of parasites in liver by measuring bioluminescence signal measured after 48 hrs; format: functional, organism-based
[2] = test system: Plasmodium berghei; assay: Anti-malarial activity against Luciferase-expressing Plasmodium berghei sporozoites inoculated in Albino C57BL/6 mouse malaria model assessed as reduction in parasites in liver at 40 mg/kg, po by measuring bioluminescence signal measured after 48 hrs relative to control; format: functional; design: scale not given: the % may be the effect or the level left
[3] = Mutagenicity in Salmonella typhimurium TA98 with S9 fraction at 10 uM by Ames test; format: toxicity, subcellular; conditions: salmonella enterica subsp. enterica serovar typhimurium, s9, 10 µM
[4] = Apparent oral clearance in ICR-CD1 mouse plasma at 40 mg/kg, po; format: ADME, organism-based; conditions: in vivo
[5] = Cmax in ICR-CD1 mouse plasma at 40 mg/kg, po; format: ADME, organism-based
[6] = test system: Plasmodium yoelii; assay: Antimalarial activity against erythrocytic Plasmodium yoelii MRA-428 infected in CF1 mouse assessed as reduction in parasitemia at 25 mg/kg, po once daily for 4 days measured on day 5; format: functional; design: scale not given: the % may be the effect or the level left; conditions: time 4 day
[7] = test system: Plasmodium berghei; assay: Anti-malarial activity against Luciferase-expressing Plasmodium berghei sporozoites inoculated in Albino C57BL/6 mouse malaria model assessed as increase in survival time at 40 mg/kg, po relative to control; format: functional
[8] = test system: MDR1 (human); assay: Apparent permeability across basolateral to apical side in MDCK transfected with human MDR1 cells incubated for 1 hr by LC-MS analysis; conditions: dog, MDCK-MDR1
[9] = AUCinf in ICR-CD1 mouse liver at 40 mg/kg, po; format: ADME, organism-based
[10] = test system: MDR1 (human); assay: Apparent permeability across apical to basolateral side in MDCK transfected with human MDR1 cells incubated for 1 hr by LC-MS analysis; conditions: dog, MDCK-MDR1
[11] = Toxicity in Albino C57BL/6 mouse inoculated with Luciferase-expressing Plasmodium berghei sporozoites at 40 mg/kg, po; format: organism-based; conditions: in vivo
[12] = test system: Plasmodium falciparum; assay: Anti-plasmodial activity against ART-resistant Plasmodium falciparum DR1 assessed as growth inhibition measured after 72 hrs by Malaria SYBR Green I-based Fluorescence (MSF) assay; format: functional, organism-based; conditions: DR1, 72 h
[13] = Metabolic stability in mouse liver microsomes assessed as half life measured up to 60 mins by LC/MS analysis; format: ADME, Microsome
[14] = AUClast in ICR-CD1 mouse liver at 40 mg/kg, po; format: ADME, organism-based
[15] = test system: Plasmodium falciparum; assay: Antiplasmodial activity against asexual blood-stage Plasmodium falciparum Tm90-C2B using 2% haematocrit and 0.2% parasitemia assessed as reduction in fluorescence measured after 72 hrs by Malaria SYBR Green I-based Fluorescence (MSF) assay; format: functional, organism-based
[16] = Half life in ICR-CD1 mouse plasma at 40 mg/kg, po; format: ADME, organism-based
[17] = test system: Plasmodium falciparum; assay: Anti-plasmodial activity against Plasmodium falciparum 3D7 infected in erythrocytes assessed as parasite reduction ratio at 1.188 uM measured 22 to 28 days; format: functional; conditions: time 22-28 day
[18] = test system: Plasmodium falciparum; assay: Anti-plasmodial activity against ART-resistant Plasmodium falciparum DR4 assessed as growth inhibition measured after 72 hrs by Malaria SYBR Green I-based Fluorescence (MSF) assay; format: functional, organism-based; conditions: DR4, 72 h
[19] = Toxicity in CF1 mouse infected with erythrocytic Plasmodium yoelii MRA-428 assessed as adverse event at 10 to 80 mg/kg, po once daily for 4 days measured on day 28 day; format: organism-based; conditions: in vivo, 96 h, dose 10-80 mg/kg, time 4 day
[20] = test system: Plasmodium yoelii; assay: Antimalarial activity against erythrocytic Plasmodium yoelii MRA-428 infected in CF1 mouse assessed as reduction in parasitemia at 10 mg/kg, po once daily for 4 days measured on day 5; format: functional; design: scale not given: the % may be the effect or the level left; conditions: time 4 day
[21] = test system: Plasmodium yoelii; assay: Antimalarial activity against erythrocytic Plasmodium yoelii MRA-428 infected in CF1 mouse assessed as cured mouse at 25 mg/kg, po once daily for 4 days measured on day 28 day; format: functional, organism-based; conditions: time 4.0 day
[22] = test system: Plasmodium falciparum; assay: Anti-plasmodial activity against Plasmodium falciparum 3D7 infected in erythrocytes assessed as Lag phase (time to observe the maximal killing effect of the drug) at 1.188 uM; format: functional
[23] = MRTlast in ICR-CD1 mouse plasma at 40 mg/kg, po; format: ADME, organism-based
[24] = AUClast in ICR-CD1 mouse plasma at 40 mg/kg, po; format: ADME, organism-based
[25] = Half life in ICR-CD1 mouse liver at 40 mg/kg, po; format: ADME, organism-based
[26] = test system: HepG2; assay: Cytotoxicity against human HepG2 cells assessed as cell viability measured after 48 hrs by MTT assay; format: toxicity, cell-based; conditions: hepg2
[27] = Tmax in ICR-CD1 mouse liver at 40 mg/kg, po; format: ADME, organism-based
[28] = test system: Plasmodium yoelii; assay: Antimalarial activity against erythrocytic Plasmodium yoelii MRA-428 infected in CF1 mouse assessed as reduction in parasitemia at 80 mg/kg, po once daily for 4 days measured on day 5; format: functional; design: scale not given: the % may be the effect or the level left; conditions: time 4 day
[29] = MRTlast in ICR-CD1 mouse liver at 40 mg/kg, po; format: ADME, organism-based
[30] = AUCextrap (extrapolated from the last observed time point) in ICR-CD1 mouse liver at 40 mg/kg, po; format: ADME, organism-based; conditions: in vivo
[31] = Mutagenicity in Salmonella typhimurium TA98 at 10 uM by Ames test; format: toxicity; conditions: salmonella enterica subsp. enterica serovar typhimurium
[32] = AUCinf in ICR-CD1 mouse plasma at 40 mg/kg, po; format: ADME, organism-based; conditions: in vivo
[33] = test system: Plasmodium falciparum; assay: Anti-plasmodial activity against Plasmodium falciparum 3D7 infected in erythrocytes assessed as parasite clearance time at 1.188 uM measured 22 to 28 days relative to initial population; format: functional; conditions: time 22-28 day
[34] = Chemical stability of the compound assessed as half life in PBS buffer at pH 7.4; format: physicochemical
[35] = in vitro; conditions: mouse, liver microsomes
[36] = test system: Plasmodium berghei; assay: Anti-malarial activity against Luciferase-expressing Plasmodium berghei sporozoites inoculated in po dosed Albino C57BL/6 mouse malaria model assessed as elimination of parasites in blood by measuring bioluminescence signal measured after 72 hrs; format: functional, organism-based
[37] = in vitro; conditions: human, liver microsomes
[38] = Chemical stability of the compound assessed as half life in PBS buffer at pH 6.6 to 9; format: physicochemical
[39] = Tmax in ICR-CD1 mouse plasma at 40 mg/kg, po; format: ADME, organism-based
[40] = AUCextrap (extrapolated from the last observed time point) in ICR-CD1 mouse plasma at 40 mg/kg, po; format: ADME, organism-based; conditions: in vivo
[41] = test system: Plasmodium falciparum; assay: microbe, parasite or virus in culture; conditions: Dd2, 72 h
Description: Antiplasmodial activity against asexual blood-stage Plasmodium falciparum Dd2 using 2% haematocrit and 0.2% parasitemia assessed as reduction in fluorescence measured after 72 hrs by Malaria SYBR Green I-based Fluorescence (MSF) assay

[42] = test system: Plasmodium yoelii; assay: Antimalarial activity against erythrocytic Plasmodium yoelii MRA-428 infected in CF1 mouse assessed as cured mouse at 80 mg/kg, po once daily for 4 days measured on day 28 day; format: functional, organism-based; conditions: time 4.0 day
[43] = test system: Plasmodium berghei; assay: Anti-malarial activity against Luciferase-expressing Plasmodium berghei sporozoites inoculated in Albino C57BL/6 mouse malaria model assessed as reduction in parasites in liver at 40 mg/kg, po by measuring bioluminescence signal measured after 72 hrs relative to control; format: functional; design: scale not given: the % may be the effect or the level left
[44] = Metabolic stability in human liver microsomes assessed as half life measured up to 60 mins by LC/MS analysis; format: ADME, Microsome
[45] = Apparent oral clearance in ICR-CD1 mouse liver at 40 mg/kg, po; format: ADME, organism-based
[46] = Chemical stability of the compound assessed as half life in acetate buffer at pH 4.5; format: physicochemical
[47] = target: Voltage-gated inwardly rectifying potassium channel KCNH2 (Homo sapiens, UniProt Q12809); assay: Inhibition of hERG expressed in CHO cells by Whole cell patch clamp assay; format: toxicity, cell-based
Chain of Voltage-gated inwardly rectifying potassium channel KCNH2 (Q12809 whole entry): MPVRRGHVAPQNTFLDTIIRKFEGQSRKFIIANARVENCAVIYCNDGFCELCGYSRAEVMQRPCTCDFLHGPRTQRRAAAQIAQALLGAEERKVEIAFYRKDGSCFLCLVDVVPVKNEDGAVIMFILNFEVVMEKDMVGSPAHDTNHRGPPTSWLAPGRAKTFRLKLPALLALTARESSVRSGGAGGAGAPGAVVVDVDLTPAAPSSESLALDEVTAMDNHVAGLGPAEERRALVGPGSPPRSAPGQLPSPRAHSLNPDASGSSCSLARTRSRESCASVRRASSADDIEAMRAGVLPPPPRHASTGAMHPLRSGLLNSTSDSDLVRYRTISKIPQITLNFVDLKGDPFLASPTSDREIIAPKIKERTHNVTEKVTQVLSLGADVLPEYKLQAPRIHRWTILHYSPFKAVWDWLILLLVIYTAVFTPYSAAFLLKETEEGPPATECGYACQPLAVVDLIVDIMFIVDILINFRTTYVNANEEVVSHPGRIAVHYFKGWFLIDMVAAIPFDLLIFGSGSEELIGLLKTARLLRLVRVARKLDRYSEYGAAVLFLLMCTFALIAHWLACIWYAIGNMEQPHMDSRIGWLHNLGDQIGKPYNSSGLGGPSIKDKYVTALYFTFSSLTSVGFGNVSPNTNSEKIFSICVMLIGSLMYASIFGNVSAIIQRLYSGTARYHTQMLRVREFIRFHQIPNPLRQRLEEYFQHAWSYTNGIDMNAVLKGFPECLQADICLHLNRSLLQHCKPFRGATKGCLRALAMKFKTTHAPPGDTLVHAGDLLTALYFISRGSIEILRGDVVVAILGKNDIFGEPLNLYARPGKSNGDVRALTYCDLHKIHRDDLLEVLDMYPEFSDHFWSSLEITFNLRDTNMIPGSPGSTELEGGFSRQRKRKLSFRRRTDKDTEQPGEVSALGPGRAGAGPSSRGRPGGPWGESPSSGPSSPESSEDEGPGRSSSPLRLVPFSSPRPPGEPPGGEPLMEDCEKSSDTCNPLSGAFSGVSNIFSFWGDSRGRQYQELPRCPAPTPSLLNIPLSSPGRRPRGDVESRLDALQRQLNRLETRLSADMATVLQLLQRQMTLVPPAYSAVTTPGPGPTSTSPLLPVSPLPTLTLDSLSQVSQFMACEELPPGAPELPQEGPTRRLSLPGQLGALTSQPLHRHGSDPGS

[48] = test system: Plasmodium falciparum; assay: Anti-plasmodial activity against Plasmodium falciparum Dd2 assessed as growth inhibition measured after 72 hrs by Malaria SYBR Green I-based Fluorescence (MSF) assay; format: functional, organism-based; conditions: Dd2, 72 h

CCC1=C(CC)/C(=C/NC2CCCCC2)N=C1c1ccc(C)[nH]1
Activity [1]: Dose-dependent-effect | Activity [2]: 72% | Activity [3]: Non-toxic | CL/F [4]: 0.312 mL/min/kg | Cmax [5]: 1440 ng/mL | Activity [6]: 100% | Survival [7]: 3 days | Papp B→A at 1 h [8]: 0.002 ×10⁻⁶ cm/s | AUC(0-inf) [9]: 1980 ng·h/mL | Papp A→B at 1 h [10]: 0.013 ×10⁻⁶ cm/s | Activity [11]: Non-toxic | IC50 [12]: 16.4 nM | half-life [13]: > 1 h | AUC(0-t) [14]: 1960 ng·h/mL | IC50 [15]: 18.4 nM | half-life [16]: 5.64 h | log(activity) [17]: 3.83 | IC50 [18]: 14.1 nM | Activity [19]: Non-toxic | Activity [20]: 88.6% | Activity [21]: Active; Four Mouse Cured Out Of Four | Time [22]: 0 h | MRT last [23]: 31.5 h | AUC(0-t) [24]: 67600 ng·h/mL | half-life [25]: 5.07 h | IC50 [26]: 7530 nM | Tmax [27]: 30 h | Activity [28]: 100% | MRT last [29]: 31.6 h | %AUCextra [30]: 0.5% | Activity [31]: Non-toxic | AUC [32]: 68123 ng·h/mL | T99.9% [33]: 39.5 h | t1/2 [34]: 4.5 h | microsomal CLint at 1 h [35]: 19.9 µL/min/mg | Activity [36]: Dose-dependent-effect | microsomal CLint at 1 h [37]: 23.6 µL/min/mg | half-life [38]: ≥ 3.33 h | Tmax [39]: 30 h | %AUCextra [40]: 0.83% | IC50 [41]: 8.04 nM | Activity [42]: Active; Four Mouse Cured Out Of Four | Activity [43]: 97% | half-life [44]: 0.978 h | CL/F [45]: 10.8 mL/min/kg | half-life [46]: ≥ 3.33 h | IC50 [47]: 4400 nM | IC20 ([47]; human, cho): 1900 nM | IC50 [48]: 13.9 nM
